Laboratory results reported in paper PMC4015874, “Effects of Allium victorialis leaf extracts and its single compounds on aldose reductase, advanced glycation end products and TGF-β1 expression in mesangial cells” (BMC Complementary and Alternative Medicine, 2013).
Entries after “also recorded” stand apart in the source; their conditions may differ.

Key:
AGEs formation = AGEs formation assay (BSA with fructose and glucose, fluorescence); type: biochemical; conditions: BSA with 0.2 M fructose and glucose, 37°C, 7 days
Description: AGEs formation assay was performed as previously described. Bovine serum albumin (BSA, 10 mg/ml, Sigma-Aldrich) in 50mM phosphate buffer (pH 7.4) with containing 0.02% sodium azide to prevent bacterial growth was added to 0.2 M fructose and glucose. The reaction mixture was then mixed with compounds or aminoguanidine (AG, Sigma-Aldrich). After incubating at 37°C for 7 days, the fluorescent reaction products were assayed on a spectrofluorometric detector (BIO-TEK, Synergy HT, Ex: 350 nm/Em: 450 nm). AGEs assay was performed in quadruplicate.

[1] = biological target: T1, crude rat lens AR (aldose reductase) (Rattus norvegicus, UniProt P07943); experiment: Rat lens AR activity; type: biochemical
T1 construct: the supernatant was used as crude rat lens AR; from tissue; host or cells: lens of 8-week-old Sprague-Dawley rats (supernatant of the homogenate)
Description: AR activity was measured as described previously. All animal procedures were approved by the Korea Institute of Oriental Medicine Institutional Animal Care Committee on animal care at our institute and conducted according to institutional guidelines. […] The homogenate was centrifuged at 14,000 rpm for 30 min, and the supernatant was used as crude rat lens AR. […] The reaction was initiated by the addition of NADPH at 37°C and stopped by the addition of 0.15 ml of 0.5 N HCl. Next, 0.5 ml of 6 M NaOH containing 10 mM imidazole was added, and the solution was heated at 60°C for 15 min to convert NADP to a fluorescent product.

human RAGE (hRAGE) = biological target: T2, human RAGE (hRAGE) (Homo sapiens, UniProt Q15109); experiment: Live cell-based AGE-BSA/RAGE binding in hRAGE-overexpressing cells; conditions: hRAGE-overexpressing MMCs, Alexa Fluor 488-labeled AGE-BSA, 6 h
T2 construct: expressed in transfected cells; host or cells: mouse kidney mesangial cells (MMCs) overexpressing hRAGE
T2 sequence (Q15109 23-404): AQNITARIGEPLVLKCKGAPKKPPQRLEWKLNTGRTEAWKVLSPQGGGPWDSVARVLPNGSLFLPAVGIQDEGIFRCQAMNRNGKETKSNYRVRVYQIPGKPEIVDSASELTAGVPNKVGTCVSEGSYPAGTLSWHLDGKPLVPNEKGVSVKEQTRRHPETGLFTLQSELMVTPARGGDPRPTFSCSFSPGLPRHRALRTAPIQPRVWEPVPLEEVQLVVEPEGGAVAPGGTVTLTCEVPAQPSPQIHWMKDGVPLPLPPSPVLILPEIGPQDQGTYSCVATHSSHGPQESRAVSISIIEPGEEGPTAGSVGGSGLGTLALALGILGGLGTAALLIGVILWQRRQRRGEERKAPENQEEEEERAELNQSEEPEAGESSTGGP
Description: AGE-BSA/RAGE binding in the cells was determined as described previously. Briefly, Alexa 488 labeling of AGE-BSA was performed using the Alexa Fluor® 488 protein labeling kit (Molecular Probes, Eugene, OR). For the binding assay, human RAGE-overexpressing cells (1×10^4) were seeded onto a 96-well assay plate with a clear bottom lid and black plate (Corning, NY) and incubated with serum-free media for 24 h. Before binding, 3% BSA was added for 30 min to block non-specific binding. Cells were treated with 5 μg of Alexa Fluor 488-labeled AGE-BSA in a total volume of 100 μl serum-free medium and incubated in the dark for 6 h in a 5% CO2 humidified atmosphere at 37°C. Compounds were added after the addition of AGE-BSA-Alexa Fluor 488 to hRAGE-overexpressing cells. The non-specific binding of AGE-BSA-Alexa Fluor 488 to cell surface proteins other than hRAGE was compared by incubating cells with untreated cells (blank). After binding, 100 μl Opti-MEM were added to the washed plates, and the plates were then analyzed using a microtiter plate reader (Bio-Tek, Winooski, VT) with excitation and emission wavelengths of 485 and 528 nm, respectively.

[2] = test system: secreted TGF-β1 in mouse kidney mesangial cells (MMCs); experiment: High glucose-induced TGF-β1 secretion in MMCs (ELISA); type: cell-based; conditions: high glucose 48 h, 10 μM compound, ELISA of medium
Description: Mouse kidney mesangial cells (SV40 MES13, MMC) were obtained from the American Type Culture Collection (#CRL-1927, Rockville, MD) and cultured in Dulbecco's modified Eagle's medium:F-12 (3:1) supplemented with 14 mM HEPES, penicillin 100 U/ml, streptomycin 100 μg/ml, and 5% fetal bovine serum. Cells were routinely grown to confluence in a humidified 37°C, 5% CO2 incubator. The levels of TGF-β1 in the medium were determined as described previously. […] This medium was then harvested and TGF-β1 was activated by treatment with 1 N HCl (0.1 ml/0.5 ml of conditioned media) for 10 min at room temperature, then 0.1 ml 1.2 N NaOH/0.5 M HEPES was added. Quantikine mouse TGF-β1 ELISA (R&D systems, Minneapolis, MN) was performed according to the manufacturer’s protocol, and the TGF-β1 levels were normalized to those of total protein.

[3] = test system: TGF-β1 mRNA expression in mouse kidney mesangial cells (MMCs); experiment: High glucose-induced TGF-β1 mRNA expression in MMCs (RT-PCR); type: cell-based; conditions: high glucose 48 h, 10 μM compound
Description: Mouse kidney mesangial cells (SV40 MES13, MMC) were obtained from the American Type Culture Collection (#CRL-1927, Rockville, MD) and cultured in Dulbecco's modified Eagle's medium:F-12 (3:1) supplemented with 14 mM HEPES, penicillin 100 U/ml, streptomycin 100 μg/ml, and 5% fetal bovine serum. Cells were routinely grown to confluence in a humidified 37°C, 5% CO2 incubator.
Total cellular RNA was extracted with TRIzol (Invitrogen, Carlsbad, CA), quantified by measuring the absorbance at 260 nm, and stored at -80°C until analysis. The expression of TGF-β1 and GAPDH mRNAs was detected by RT-PCR analysis. The extracted RNA (1 μg) was subjected to a reverse transcriptase reaction with the Maxime RT premix (Intron, Daejeon, Korea) at 42°C for 60 min and 72°C for 10 min. Subsequently, semi-quantitative PCR was performed with Accupower® PCR premix (Intron, Daejeon, Korea). The primer sequences were as follows: mouse TGF-β1 (sense) 5’- TGAACCAAGGAGACGGAATACAGG -3’, (anti-sense) 5'- GCCATGAGGAGCAGGAAGGG -3’ and mouse GAPDH (sense) 5’- ACGGCAAATTCAACGGCACAG -3’, (anti-sense) 5’- AGACTCCACGACATACTCAGCAC -3’. Aliquots of PCR products were electrophoresed on 1.2% agarose gels and visualized after ethidium bromide staining.

SMILES | IC50 (AGEs formation) | IC50 ([1]; DL-glyceraldehyde substrate) | AR inhibitory potency compared with positive control TMG [1] | further results
N=C(N)NN [Aminoguanidine, aminoguanidine, reference compound] | 1030 ± 70 µM |  |  | AGEs IC50 (AGEs formation): 76.47 ± 4.81 µg/mL
C[C@@H]1O[C@@H](Oc2c(-c3ccc(O)c(O)c3)oc3cc(O)cc(O)c3c2=O)[C@H](O)[C@H](O)[C@H]1O [Compound 4, quercitrin] | 4.2 ± 0.04 µM | 0.17 ± 0.1 µM | significantly more potent | Inhibition of AGE-RAGE binding (human RAGE (hRAGE)): significantly inhibited; Inhibition of AGE-RAGE binding (human RAGE (hRAGE); listed as quercitrin): disrupted AGE-RAGE binding in a concentration-dependent manner
O=c1c(O)c(-c2ccc(O)cc2)oc2cc(O)cc(O)c12 [Compound 5, kaempferol] | 36 ± 1.4 µM | 1.1 ± 0.63 µM | significantly more potent | 
O=c1c(O)c(-c2ccc(O)c(O)c2)oc2cc(O)cc(O)c12 [Compound 6, quercetin] | 27.1 ± 0.11 µM |  | significantly more potent | 
O=C(O)C=Cc1ccc(O)cc1 [Compound 7, 4-hydroxycinnamic acid] | 9.92 ± 0.11 µM | > 50 µM |  | 
O=C(O)CC1(CC(=O)O)CCCC1 [Tetramethyleneglutaric acid, 3,3-tetramethyleneglutaric acid, reference compound] |  | 5.07 ± 0.06 µM |  | AR IC50 ([1]; DL-glyceraldehyde substrate): 0.94 ± 0.01 µg/mL

Further lines, with some results ahead:

IC50 (AGEs formation) | IC50 ([1]; DL-glyceraldehyde substrate) | SMILES | AR inhibitory potency compared with positive control TMG [1] | further results
> 100 µM | > 50 µM | O=c1c(O[C@@H]2O[C@H](CO)[C@@H](O)[C@H](O)[C@H]2O)c(-c2ccc(O[C@@H]3O[C@H](CO)[C@@H](O)[C@H](O)[C@H]3O)cc2)oc2cc(O[C@@H]3O[C@H](CO)[C@@H](O)[C@H](O)[C@H]3O)cc(O)c12 [Compound 1, Kaempferol 3,7,4’-O-β-D-triglucopyranoside] |  | 
56.4 ± 1.39 µM | > 50 µM | O=c1c(O[C@@H]2O[C@H](CO)[C@@H](O)[C@H](O)[C@H]2O)c(-c2ccc(O)cc2)oc2cc(O[C@@H]3O[C@H](CO)[C@@H](O)[C@H](O)[C@H]3O)cc(O)c12 [Compound 2, Kaempferol 3,7-O-β-D-diglucopyranoside] |  | 
59.7 ± 1.22 µM | 9.77 ± 0.33 µM | O=c1c(O[C@@H]2O[C@H](CO)[C@@H](O)[C@H](O)[C@H]2O)c(-c2ccc(O[C@@H]3O[C@H](CO)[C@@H](O)[C@H](O)[C@H]3O)cc2)oc2cc(O)cc(O)c12 [Compound 3, kaempferol 3,4’-O-β-D-diglucopyranoside] |  | 
7.5 ± 0.2 µM | > 50 µM | COc1cc(/C=C/C(=O)O)ccc1O [Compound 8, ferulic acid] |  | Inhibition of high glucose-induced TGF-β1 secretion [2]: significantly reduced; also recorded: reduces; Inhibition of high glucose-induced TGF-β1 mRNA expression [3]: greatest inhibitory effect; Inhibition of high glucose-induced TGF-β1 mRNA expression ([3]; listed as ferulic acid): significantly reduced; also recorded: reduces
